Columns and labels:
PC3-luc cells [1] = test: Intratibial PC3-luc tumor growth in SCID mice, checked weekly by BLI; type: in vivo; details: BAL 20 mg/kg s.c. twice daily, DOC 5 mg/kg i.p. once a week, weeks 1-4, combination p=0.009
Procedure: Methods: 59 severe combined immunodeficiency (SCID) mice received intratibial injection with PC3-luc cells (2×10^4 cells in 20 ul). Balixafortide (20 mg/kg) (BAL) and vehicle were injected subcutaneously twice daily starting on day one and Docetaxel (5 mg/kg) (DOC) was injected intraperitoneal once a week starting on day one. The tumor growth in mouse tibia was checked weekly by BLI.

PC3-luc cells [2] = test: Radiograph of injected tibia at necropsy: bone degradation and percent osteolytic area; type: in vivo, mice; details: proximal third of tibia, no significant differences among the groups
Procedure: After 30 days, at the time of necropsy, tumor growth in mouse tibia was checked by radiograph and mice were sacrificed, and serum and bone were collected. Serum was kept at −80° C. and tibia were stored in 10% buffered formalin at room temperature for 48 hours before being stored at 4° C.
Radiographic images were imported into SketchandCalc software. The proximal third of the tibia was traced to calculate its area and defined as total area, then osteolytic areas were traced to calculate the total osteolytic area (FIG. 3A) and the percent osteolytic area/bone area was calculated.

Row | Compound | tumor growth / total tumor burden in mouse tibia (BLI) (PC3-luc cells [1]) | percent osteolytic area/bone area (mean) (PC3-luc cells [2])
1 | cyclo(-Tyr-His-Ala-Cys-Ser-Ala-^DPro-Dab-Arg-Tyr-Cys-Tyr-Gln-Lys-^DPro-Pro-) having a disulfide bond between Cys4 and Cys11 [Balixafortide] | neither BAL nor DOC impacted tumor growth as sole agents | no significant differences among the groups
2 | CC(=O)O[C@@]12CO[C@@H]1C[C@H](O)[C@@]1(C)C(=O)[C@H](O)C3=C(C)[C@@H](OC(=O)[C@H](O)[C@@H](NC(=O)OC(C)(C)C)c4ccccc4)C[C@@](O)([C@@H](OC(=O)c4ccccc4)[C@H]21)C3(C)C [Docetaxel, (2R,3S)—N-carboxy-3-phenylisoserine,N-tert-butylester, 13 ester with 5ß-20-epoxy-1,2a,4,78,10B,13a-hexahydroxytax-11-en-9-one 4-acetate 2 benzoate] | neither BAL nor DOC impacted tumor growth as sole agents | lower than vehicle or Balixafortide

Source: patent US20260000729A1, “COMBINATION THERAPIES FOR TREATMENT OF CANCER” (The Regents of the University of Michigan, priority 2022, published 2026)
